Activity calls are given as the source filed them. How the calls were made is not given here.
Test system: HEK-293T NF-kB luciferase reporter counterscreen, luminescence
Experiment: inhibitors of HEK-293T NF-kB luciferase – HEK-293T cells, luminescence, counter-screen for T-cell antigen receptor NF-kB inhibitors, dose response (AID 489041)

Compound | IC50
Cc1ccc(/C=N/NC(=O)C2COc3ccccc3O2)s1 (configuration not stated) | 51.6 µM (inactive)
COc1ccc(COC(=O)c2cc([N+](=O)[O-])ccc2N2CCOCC2)cc1F | 2.29 µM
COc1cc(C2C(C#N)=C(N)Oc3cc(N(C)C)ccc32)cc2c1OCO2 (configuration not stated) | 3.56 µM
CCO[C@@H]1OC(C(=O)NCc2nc3ccccc3[nH]2)=C[C@H](C(C)(C)C)[C@H]1CCCO | 1.37 µM
Cc1noc(C)c1COc1ccc(C(=O)NNC(=O)c2ccccc2F)cc1 | 30.3 µM (inactive)
Cc1cccc(NS(=O)(=O)c2ccc(-c3cnc(C4CC4)o3)cc2)c1 | 3.27 µM
CCCCOc1ccccc1C1CC(=O)NC2=C1C(=O)CCC2 (configuration not stated) | 12.8 µM
C=CCNC(=S)N/N=C(\C)c1ccccn1 | > 80 µM (inactive)
CCOC(=O)COc1cccc2c(=O)n(CC(=O)NCc3ccccc3)ccc12 | 0.63 µM
COC(=O)c1ccc(C)c(NS(=O)(=O)c2ccc3c(c2)OCCO3)c1 | 20.1 µM (inactive)
COc1cc(C(=O)Nc2ccc3c(c2)ncn3C)cc(OC)c1OC | 14.7 µM
COc1ccccc1-c1nnc2sc(-c3ccc(N(C)C)cc3)nn12 | 2.32 µM
CC(C)Oc1ccccc1C1CC(=O)Nc2cc3c(cc21)OCCO3 (configuration not stated) | 2.69 µM
Cc1ncoc1C(=O)NC1CCCc2c1cnn2-c1ccc(C(C)(C)C)cc1 (configuration not stated) | 3.41 µM
CCCC(=O)NC(c1ccc(C(C)C)cc1)c1ccc2cccnc2c1O (configuration not stated) | 0.66 µM
COc1ccc(S(=O)(=O)N2N=C(C)Oc3ccccc3C2=O)cc1 | 29.9 µM (inactive)
Cc1nc(SCC(=O)Nc2nc3ccccc3s2)c(C#N)c(C)c1C | < 0.16 µM
CCOc1ccc(Nc2cc(C)nc(-n3nc(C)cc3C)n2)cc1 | 3.93 µM
Cn1nc(-c2ccccn2)nc2c(=O)n(C)c(=O)nc1-2 | 5.68 µM
CCOc1ccc2c(c1)OC(c1ccc(OC)cc1)(C(F)(F)F)NC2=O (configuration not stated) | 9.2 µM
Cc1cccc(N2CCN(C(=O)c3ccc(CS(=O)(=O)c4ccccc4C)o3)CC2C)c1 (configuration not stated) | 2.34 µM
CC1=Nc2ccccc2/C1=C\c1sc(Nc2ccc(C)cc2)nc1O | 3.6 µM
Cc1ccc(/C=C/c2ccc(N(C)C)cc2)[n+](C)c1 | 2.7 µM
CCCC(=O)NC(c1ccc(OC)cc1)c1ccc2cccnc2c1O (configuration not stated) | > 80 µM (inactive)
COC(=O)c1ccc(Oc2cc(C)nc(SC)n2)cc1 | 28.8 µM (inactive)
CCOc1ccccc1C1CC(=O)Nc2cc(C)c(C)cc21 (configuration not stated) | 7.75 µM

Compound | IC50
CCOC(=O)c1ccccc1NC(=O)Cn1c(-c2nonc2N)nc2ccccc21 | 0.47 µM
Cc1nc(Sc2nnnn2C)c2c3c(sc2n1)CCC3 | 31.4 µM (inactive)
CCN(CC)c1ccc2nc3ccc(N)cc3[n+](-c3ccccc3)c2c1 | 2.72 µM
CCOc1ccccc1C1CC(=O)Nc2cc3c(cc21)OCO3 (configuration not stated) | 6.14 µM
Cc1cc(C)c(CN2CCN(C(=O)Cn3cnc4c(OCc5ccccc5)ncnc43)CC2)c(C)c1 | 2.6 µM
CCCCn1c2c(c(=N)c3c1CCC3)CCC2 | 8.5 µM
O=C(Nc1ccn(Cc2ccccc2F)n1)c1ccc(COc2ccc(Br)cc2)cc1 | 1.55 µM
COc1cccc(N2CCN(C(=O)c3cn(Cc4ccccc4)nc3-c3cccnc3)CC2)c1 | 16.4 µM
CN(C)S(=O)(=O)c1ccc(Nc2nc(C3CC3)nc3c2nnn3Cc2ccccc2Cl)cc1 | 4.04 µM
C=C(C)COc1ccc(-c2n[nH]c(C)c2-c2ccc(OC)c(OC)c2)c(O)c1 | 9.37 µM
CC(=O)O[C@H]1C(=O)[C@]2(C)[C@H]([C@H](OC(=O)c3ccccc3)[C@]3(O)C[C@H](OC(=O)[C@H](O)[C@@H](NC(=O)c4ccccc4)c4ccccc4)C(C)=C1C3(C)C)[C@]1(OC(C)=O)CO[C@@H]1C[C@@H]2O | 76.2 µM (inactive)
Cc1cccc(N2CCN(C(=O)c3ccc(S(=O)(=O)N(C)c4ccccc4)cc3)CC2)c1C | 10.5 µM
c1cc2c(cc1C1=NNC(=NC3CC3)SC1)OCCO2 | 2.33 µM
COc1ccc(NC(=O)C(=O)NCC2CCCN2S(=O)(=O)c2cccs2)cc1 (configuration not stated) | 21 µM (inactive)
Cc1cc(C(C)(C)C)cc(C)c1C[n+]1ccc2ccccc2c1 | 4.34 µM
CCN(CC)c1ccc(/C=N/NC(=O)c2cccc(S(=O)(=O)Nc3ccccc3OC)c2)c(O)c1 | 0.23 µM
COc1cc(C2c3cc4c(cc3CC3COC(=O)C32)OCO4)cc(OC)c1OC (configuration not stated) | > 80 µM (inactive)
CCOC(=O)c1[nH]c(C)c(C(=O)Nc2cc(OC)ccc2OC)c1C | > 80 µM (inactive)
Clc1ccc2c(c1)C(C1=NCCN1)c1ccccc1CS2 (configuration not stated) | > 80 µM (inactive)
COc1ccc(C2=Nn3c(nnc3-c3ccccc3OC)SC2)cc1OC1CCCC1 | 3.68 µM
Cc1ccc2c(c1)sc(-c1ccc(N(C)C)cc1)[n+]2C | 0.87 µM
Cc1ccc(C[n+]2c(-c3ccc(C)cc3)cc(-c3ccc(C)cc3)cc2-c2ccc(C)cc2)cc1 | 1.19 µM
CCCCCCCOc1ccc(OC(=O)c2ccncc2)cc1 | > 80 µM (inactive)
CCOC(=O)C(C)Oc1cccc2c(=O)n(CC(=O)NCc3ccc(F)cc3)ccc12 (configuration not stated) | 9.67 µM
CN(C)c1ccc2c(c1)OC(N)=C(C#N)C2c1cccc(F)c1 (configuration not stated) | 1.45 µM
Cc1ccc(N/C(N)=N/c2nc(CSc3nnc(C)s3)cc(=O)[nH]2)c(C)c1 | 4.17 µM

Compound | IC50
COc1ccc(C(=O)Nc2ccc3[nH]c(-c4cccc(OC)c4)cc(=O)c3c2)cc1 | > 80 µM (inactive)
COc1ccc(CCN2C(=O)C3C4C=CC(C3C2=O)C2C(=O)N(CCc3ccc(OC)c(OC)c3)C(=O)C42)cc1OC (configuration not stated) | 5.01 µM
CC(C)(C)c1nnc(N/N=C/c2ccccc2O)n(N)c1=O | 28 µM (inactive)
CCC(=O)N1c2ccc(S(=O)(=O)N3CCN(c4ccc([N+](=O)[O-])cc4)CC3)cc2CC1C (configuration not stated) | > 80 µM (inactive)
CCCCCc1ccc(OCCCC[n+]2ccc(C)cc2)c(CCCCC)c1 | 5.84 µM
COc1cc(-c2noc(C)c2/C=C/c2cccc([N+](=O)[O-])c2)cc(OC)c1OC | 9.59 µM
Nc1ncn([C@@H]2O[C@H](CO)[C@@H](O)[C@H]2O)c(=O)n1 | 4.76 µM
COC(=O)C1=C(CN2CCCc3ccccc32)NC(=O)NC1c1ccc(F)cc1 (configuration not stated) | 5.33 µM
O=C(Nc1cccc2ccccc12)OC1C=CS(=O)(=O)C1 (configuration not stated) | 51.2 µM (inactive)
COc1cc([C@@H]2c3cc4c(cc3[C@@H](OC)[C@H]3COC(=O)[C@H]23)OCO4)cc(OC)c1O | > 80 µM (inactive)
COc1cc(NS(=O)(=O)c2ccc(C)cc2)c2ncccc2c1 | 1.65 µM
COc1ccc(NC(=O)/C(Cl)=C(/Cl)S(=O)Cc2ccccc2)cn1 (configuration not stated) | 8.71 µM
Cc1ccc2[nH]c3c(c2c1)CCCC3NC(=O)CCl (configuration not stated) | 7.68 µM
CCOc1ccccc1NC(=O)Cn1nnc(C(=O)NCc2ccco2)c1N | 26.3 µM (inactive)
COc1ccc(N/N=C/c2c(C(=O)O)ccc3ccccc23)cc1 | 15.8 µM
COc1cccc(N/C(N)=N/c2nc(CSc3ccccn3)cc(=O)[nH]2)c1 | 5.9 µM
CC(C)c1oc(=O)cc2c1[C@@H](O)[C@H]1OC(=O)[C@@]3(C)CC[C@@H](O)[C@@]2(C)C13 (some centres not stated) | 4.59 µM
O=C(NCCc1ccccc1)c1ccc2c(c1)OCCO2 | 1.3 µM
O=c1cc(-c2ccccc2)[nH]c2cc(F)ccc12 | 2.62 µM
COc1ccc2c(C)nc(Nc3nc(-c4ccccc4)cc(=O)[nH]3)nc2c1 | 1.54 µM
COc1cc(C(=O)N2CCN(c3cc(Cl)ccc3Cl)CC2)cc(OC)c1OC | 3.01 µM
O=C(COc1ccccc1-c1ccccc1)N/N=C/c1cccc2ccccc12 | 8 µM
c1ccc2c(c1)CCN(c1ncnc3c1[nH]c1ccccc13)C2 | 1.43 µM
C=CC[C@@H](CC/C=C/C=C/CC/C=C\[C@@H]1CSC([C@@H]2C[C@@H]2C)=N1)OC | 3.72 µM
CCc1ccc(N2C(=O)C(Cl)=C(Nc3ccc(C(=O)N4CCCC4)cc3)C2=O)cc1 | 66.9 µM (inactive)
CCCCCCCCCn1c2c(c(=N)c3c1CCC3)CCC2 | 0.98 µM

Compound | IC50
O=C(Nc1ccc(N2CCN(C(=O)c3ccc(Cl)cc3)CC2)cc1)c1ccc2c(c1)OCCO2 | 3.1 µM
CCC/C(O)=C1\C(=O)CC(C)(C)CC1=Nc1ccc(OC)cc1OC | 18.4 µM
Cc1cc(-c2ccc(C(C)C)c(S(=O)(=O)N3CCN(c4ccccc4)CC3)c2)on1 | 22 µM (inactive)
CS(=O)(=O)c1ccc(Sc2nc3ccccc3s2)c([N+](=O)[O-])c1 | 17.1 µM
C=C1C(=O)C=C2CN(C(=O)c3ccccc3)[C@@](Cc3ccc(F)cc3)(C(=O)OC)[C@@H]12 | 11 µM
Cc1oc(-c2ccc(Cl)cc2)nc1CS(=O)CC(=O)NCCCN1CCN(Cc2ccccc2)CC1 (configuration not stated) | 4.13 µM
CCCSc1nnc(Sc2nnnn2-c2ccccc2)s1 | 9.43 µM
COc1cc2c(c(OC)c1OC)-c1ccc(O)cc1[C@@H](NC(C)=O)CC2 | > 80 µM (inactive)
COc1ccc(NS(=O)(=O)c2ccc(-c3cnc(C4CC4)o3)cc2)cc1OC | 1 µM
CCOC(=O)CC1CCCCN1C(=O)c1cc(COc2cccc3cnccc23)on1 (configuration not stated) | 1.81 µM
CC(=O)O[C@H]1C(=O)[C@@]2(C)C([C@H](OC(=O)c3ccccc3)[C@]3(O)C[C@H](OC(=O)[C@H](O)[C@@H](NC(=O)c4ccccc4)c4ccccc4)C(C)=C1C3(C)C)[C@]1(OC(C)=O)CO[C@@H]1C[C@H]2O (some centres not stated) | > 80 µM (inactive)
Cc1cc(NC(=O)CSc2nc3ccccc3c(=O)n2C2CCCC2)no1 | 19.1 µM
CC[C@]1(O)CC2CN(CCc3c([nH]c4ccccc34)[C@@](C(=O)OC)(c3cc4c(cc3OC)N(C=O)[C@H]3[C@@](O)(C(=O)OC)[C@H](OC(C)=O)[C@]5(CC)C=CCN6CC[C@]43[C@@H]65)C2)C1 (some centres not stated) | 3.12 µM
COc1ccc(/C=N\NC(=O)c2ccccc2F)cc1COc1ccc(F)cc1F | 8.43 µM
O=C(Nc1ccc([N+](=O)[O-])cc1)Nc1ccon1 | > 80 µM (inactive)
O=C(Sc1cccc2cccnc12)c1ccc(F)cc1 | 34.2 µM (inactive)
CCOc1ccccc1C1CC(=O)Nc2cc3c(cc21)OCCO3 (configuration not stated) | 4.19 µM
COc1ccc(Nc2nc3cc(C)ccc3cc2C#N)c(OC)c1 | > 80 µM (inactive)
Cc1ccc(S(=O)(=O)NCc2ccncc2)c(C)c1C | 0.3 µM
COC(=O)c1nn(-c2ccc3c(c2)CCN3C(C)=O)cc1O | 3.87 µM
COCCn1c(C)cc(C2=NNC(=Nc3ccccc3F)SC2)c1C | 17.9 µM
CCOC(=O)c1c(C)[nH]c(C(=O)N/N=C/c2ccc(Br)cc2)c1C | < 0.16 µM
O=C(Nc1ccccc1Cl)/C(Cl)=C(\Cl)S(=O)c1ccccc1 (configuration not stated) | 9.87 µM
COc1cc(/C=C/c2ccc3cccc(O)c3n2)cc(OC)c1OC | > 80 µM (inactive)

— PubChem BioAssay AID489041 (Sanford-Burnham Center for Chemical Genomics, 2010)
